Source: patent US8653100B2 (AbbVie Inc., priority 2008, dated 2014)
Counter-ions that a name gives are not always drawn.

Biological target: human GlyT1c (Homo sapiens (Human), UniProt P48067)
Assay: [3H]-Glycine uptake into recombinant CHO cells expressing human GlyT1
Type: cell-based
Settings: hGlyT1c_5_CHO cells, 200 nM [3H]-glycine
Description: [^3H]-Glycine uptake into recombinant CHO cells expressing human GlyT1: Human GlyT1c expressing recombinant hGlyT1c—5_CHO cells were plated at 20,000 cells per well in 96 well Cytostar-T scintillation microplates (Amersham Biosciences) and cultured to sub-confluency for 24 h. […] The plates were placed in a Wallac Microbeta (PerkinElmer) and continuously counted by solid phase scintillation spectrometry during up to 3 hours. […] IC50 calculations were made by four-parametric logistic nonlinear regression analysis (GraphPad Prism) using determinations within the range of linear increase of [^3H]-glycine incorporation between 60 and 120 min.

Chain of human GlyT1c (P48067 whole entry): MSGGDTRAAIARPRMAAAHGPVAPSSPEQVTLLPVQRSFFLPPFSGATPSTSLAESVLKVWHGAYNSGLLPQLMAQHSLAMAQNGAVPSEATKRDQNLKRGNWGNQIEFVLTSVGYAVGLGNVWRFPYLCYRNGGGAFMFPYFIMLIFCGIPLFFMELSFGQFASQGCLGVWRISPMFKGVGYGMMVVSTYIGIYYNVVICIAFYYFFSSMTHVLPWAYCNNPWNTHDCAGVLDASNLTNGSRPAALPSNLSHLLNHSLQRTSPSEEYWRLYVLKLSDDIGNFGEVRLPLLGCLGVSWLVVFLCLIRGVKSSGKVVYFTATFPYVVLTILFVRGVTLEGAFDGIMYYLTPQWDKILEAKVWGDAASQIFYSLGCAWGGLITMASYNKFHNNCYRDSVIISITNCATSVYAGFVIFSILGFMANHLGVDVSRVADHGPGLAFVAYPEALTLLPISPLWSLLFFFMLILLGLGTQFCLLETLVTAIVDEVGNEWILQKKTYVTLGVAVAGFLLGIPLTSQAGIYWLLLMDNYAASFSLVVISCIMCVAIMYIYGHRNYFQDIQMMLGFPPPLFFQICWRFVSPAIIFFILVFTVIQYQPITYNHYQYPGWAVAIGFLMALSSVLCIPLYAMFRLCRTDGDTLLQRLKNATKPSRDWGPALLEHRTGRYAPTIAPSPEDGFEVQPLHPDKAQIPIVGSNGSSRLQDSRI

Structure (SMILES)	IC50
CCCS(=O)(=O)NCCOc1ccc2c(c1)C(C1(c3ccc(Cl)cc3)CCC1)N(C(=N)N)CC2 (centres unmarked) [Example 47, 1-[1-(4-Chloro-phenyl)-cyclobutyl]-7-[2-(propane-1-sulfonylamino)-ethoxy]-3,4-dihydro-1H-isoquinoline-2-carboxamidine]	≤ 10000 nM
O=C(COc1ccc2c(c1)C(C1(c3ccc(Cl)cc3)CCC1)NCC2)N1CCNCC1 (centres unmarked) [Example 48, 2-{1-[1-(4-Chloro-phenyl)-cyclobutyl]-1,2,3,4-tetrahydro-isoquinolin-7-yloxy}-1-piperazin-1-yl-ethanone]	≤ 10000 nM
Cc1nc(S(=O)(=O)NCCOc2ccc3c(c2)C(C2(c4ccc(Cl)cc4)CCC2)NCC3)cn1C (centres unmarked) [Example 52, 1-(1-(4-Chlorophenyl)cyclobutyl)-7-(2-(1,2-dimethyl-1H-imidazole-4-sulfonamido)ethoxy)-1,2,3,4-tetrahydroisoquinolinium chloride]	≤ 10000 nM
CCOC(=O)N1CCN(S(=O)(=O)NCCOc2ccc3c(c2)C(C2(c4ccc(Cl)cc4)CCC2)NCC3)CC1 (centres unmarked) [Example 54, Ethyl 4-(N-(2-(1-(1-(4-chlorophenyl)cyclobutyl)-1,2,3,4-tetrahydroisoquinolin-7-yloxy)ethyl)sulfamoyl)piperazine-1-carboxylate hydrochloride]	≤ 10000 nM
O=S(=O)(NCCOc1ccc2c(c1)C(C1(c3ccc(Cl)cc3)CCC1)NCC2)N1CCNCC1 (centres unmarked) [Example 55, N-(2-(1-(1-(4-Chlorophenyl)cyclobutyl)-1,2,3,4-tetrahydroisoquinolin-7-yloxy)ethyl)piperazine-1-sulfonamide dihydrochloride]	≤ 10000 nM
CCCS(=O)(=O)N1CCN(S(=O)(=O)NCCOc2ccc3c(c2)C(C2(c4ccc(Cl)cc4)CCC2)NCC3)CC1 (centres unmarked) [Example 56, N-(2-(1-(1-(4-Chlorophenyl)cyclobutyl)-1,2,3,4-tetrahydroisoquinolin-7-yloxy)ethyl)-4-(propylsulfonyl)piperazine-1-sulfonamide hydrochloride]	≤ 10000 nM
O=S(=O)(NCCOc1ccc2c(c1)C(C1(c3ccc(Cl)cc3)CCC1)NCC2)c1ccc(NCc2ccccc2)nc1 (centres unmarked) [Example 58, 6-(Benzylamino)-N-(2-(1-(1-(4-chlorophenyl)cyclobutyl)-1,2,3,4-tetrahydroisoquinolin-7-yloxy)ethyl)pyridine-3-sulfonamide hydrochloride]	≤ 1000 nM
CCCNc1ccc(S(=O)(=O)NCCOc2ccc3c(c2)C(C2(c4ccc(Cl)cc4)CCC2)NCC3)cn1 (centres unmarked) [Example 59, N-(2-(1-(1-(4-Chlorophenyl)cyclobutyl)-1,2,3,4-tetrahydroisoquinolin-7-yloxy)ethyl)-6-(propylamino)pyridine-3-sulfonamide hydrochloride]	≤ 10000 nM
CCCS(=O)(=O)NCCOc1ccc2c(c1)C(C(c1ccc(Cl)cc1)C(C)C)NCC2 (centres unmarked) [Example 60, dihydrochloride]	≤ 10000 nM
CCCS(=O)(=O)NCCOc1ccc2c(c1)CCNC2C1(c2ccc(Cl)cc2)CCC1 (centres unmarked) [Example 68, N-[2-({1-[1-(4-Chlorophenyl)cyclobutyl]-1,2,3,4-tetrahydroisoquinolin-6-yl}oxy)ethyl]propane-1-sulfonamide hydrochloride]	≤ 10000 nM
CCN(CC)S(=O)(=O)NCCOc1ccc2c(c1)C(C1(c3ccc(Cl)cc3)CCC1)NCC2(C)C (centres unmarked) [Example 69, N′-[2-({1-[1-(4-Chlorophenyl)cyclobutyl]-4,4-dimethyl-1,2,3,4-tetrahydroisoquinolin-7-yl}oxy)ethyl]-N,N-diethylsulfuric diamide hydrochloride]	≤ 1000 nM
CCCS(=O)(=O)NCCOc1ccc2c(c1)C(C1(c3ccc(F)cc3)CCC1)N(C(=O)C(F)(F)F)CC2 (centres unmarked) [Example 70, N-[2-({1-[1-(4-Fluorophenyl)cyclobutyl]-2-(trifluoroacetyl)-1,1,3,4-tetrahydroisoquinolin-7-yl}oxy)ethyl]propane-1-sulfonamide]	≤ 100000 nM
CCCS(=O)(=O)NCCOc1ccc2c(c1)C(C1(c3ccc(F)cc3)CCC1)N(CC(F)(F)F)CC2 (centres unmarked) [Example 71, N-[2-({1-[1-(4-Fluorophenyl)cyclobutyl]-2-(2,2,2-trifluoroethyl)-1,2,3,4-tetrahydroisoquinolin-7-yl}oxy)ethyl]propane-1-sulfonamide hydrochloride]	≤ 1000 nM
CCCS(=O)(=O)NCCOc1ccc2c(c1)C(C1(c3ccc(F)cc3)CCC1)N(N=O)CC2 (centres unmarked) [Example 74, N-[2-({1-[1-(4-Fluorophenyl)cyclobutyl]-2-nitroso-1,2,3,4-tetrahydroisoquinolin-7-yl}oxy)ethyl]propane-1-sulfonamide]	≤ 10000 nM
CCCS(=O)(=O)NCCOc1ccc2c(c1)C(C1(c3ccc(F)cc3)CCC1)N(N)CC2 (centres unmarked) [Example 75, N-[2-({2-Amino-1-[1-(4-fluorophenyl)cyclobutyl]-1,2,3,4-tetrahydroisoquinolin-7-yl}oxy)ethyl]propane-1-sulfonamide]	≤ 1000 nM
CCCS(=O)(=O)NCCOc1ccc2c(c1)C(C1(c3ccc(Cl)cc3OC)CCC1)NCC2 (centres unmarked) [Example 76, N-[2-({1-[1-(4-Chloro-2-methoxyphenyl)cyclobutyl]-1,2,3,4-tetrahydroisoquinolin-7-yl}oxy)ethyl]propane-1-sulfonamide hydrochloride]	≤ 100 nM

Second part, the compound after the results:

IC50	Structure (SMILES)
≤ 100 nM	CCCS(=O)(=O)NCCOc1ccc2c(c1)C(C1(c3cccc(Cl)c3)CCC1)NCC2 (centres unmarked) [Example 49, Propane-1-sulfonic acid (2-{1-[1-(3-chloro-phenyl)-cyclobutyl]-1,2,3,4-tetrahydroisoquinolin-7-yloxy}-ethyl)-amide]
≤ 100 nM	CCCS(=O)(=O)NCCOc1ccc2c(c1)C(C1(c3ccccc3)CCC1)NCC2 (centres unmarked) [Example 50, 1-(1-Phenylcyclobutyl)-7-(2-(propylsulfonamido)ethoxy)-1,2,3,4-tetrahydroisoquinolinium chloride]
≤ 100 nM	Cn1cnc(S(=O)(=O)NCCOc2ccc3c(c2)C(C2(c4ccc(Cl)cc4)CCC2)NCC3)c1 (centres unmarked) [Example 51, 1-(1-(4-Chlorophenyl)cyclobutyl)-7-(2-(1-methyl-1H-imidazole-4-sulfonamido)ethoxy)-1,2,3,4-tetrahydroisoquinolinium chloride]
≤ 100 nM	O=S(=O)(NCCOc1ccc2c(c1)C(C1(c3ccc(Cl)cc3)CCC1)NCC2)c1c[nH]cn1 (centres unmarked) [Example 57, N-(2-(1-(1-(4-Chlorophenyl)cyclobutyl)-1,2,3,4-tetrahydroisoquinolin-7-yloxy)ethyl)-1H-imidazole-4-sulfonamide hydrochloride]
≤ 100 nM	O=S(=O)(NCCOc1ccc2c(c1)C(C1(c3ccc(Cl)cc3)CCC1)NCC2)C1CCCNC1 (centres unmarked) [Example 61, N-(2-(1-(1-(4-Chlorophenyl)cyclobutyl)-1,2,3,4-tetrahydroisoquinolin-7-yloxy)ethyl)piperidine-3-sulfonamide dihydrochloride]
≤ 100 nM	O=S(=O)(NCCOc1ccc2c(c1)C(C1(c3ccc(F)cc3)CCC1)NCC2)c1cccnc1 (centres unmarked) [Example 66, N-[2-({1-[1-(4-Fluorophenyl)cyclobutyl]-1,2,3,4-tetrahydroisoquinolin-7-yl}oxy)ethyl]pyridine-3-sulfonamide hydrochloride]
≤ 100 nM	CCCS(=O)(=O)NCCOc1ccc2c(c1)C(C1(c3ccc(Cl)cc3)CCC1)NCC2(C)C (centres unmarked) [Example 67, N-[2-({1-[1-(4-Chlorophenyl)cyclobutyl]-4,4-dimethyl-1,2,3,4-tetrahydroisoquinolin-7-yl}oxy)ethyl]propane-1-sulfonamide hydrochloride]
